Data published in PubChem BioAssay AID1963435 (Molecular Pharmacology Branch, DTP, NCI, 2024).
Several values for one entry are separate records, joined by “and”; a condition that tells them apart may be missing. Equal entries are not always repeated. Values belong to the compound of their own block, whether it stands above or below them.

System: PANC-1 complex spheroid growth, percent test/control
Test: Anticancer human tumor PANC-1 cell line growth inhibition [Asc];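 note: spheroids exposed to agents for 7 days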;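 for viability, T/C: percent viability relative to DMSO vehicle wells taken as 100%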
Conditions: for viability, T/C: stronger effect = lower value
In short: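 Spheroid model: tumor line + HUVEC + hMSC. Single agents and combinations; top conc. at/near clinical Cmax (10 microM if undetermined), half-log dilutions. DMSO stocks at 800-fold test concentration.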

[1] = curve of first compound, second compound 0.00316 µM
[2] = curve of first compound, second compound 0.01 µM
[3] = curve of first compound, second compound 0.0316 µM
[4] = curve of first compound, second compound 0.1 µM
[5] = curve of first compound, second compound 0.316 µM
[6] = curve of first compound, second compound 1 µM
[7] = second compound 0.00316 µM, first compound 0.0316 µM
[8] = second compound 0.00316 µM, first compound 0.1 µM
[9] = second compound 0.01 µM, first compound 0.0316 µM
[10] = second compound 0.01 µM, first compound 0.1 µM
[11] = second compound 0.0316 µM, first compound 0.0316 µM
[12] = second compound 0.0316 µM, first compound 0.1 µM
[13] = second compound 0.0316 µM, first compound 0.316 µM
[14] = second compound 0.0316 µM, first compound 1 µM
[15] = second compound 0.1 µM, first compound 0.0316 µM
[16] = second compound 0.1 µM, first compound 0.1 µM
[17] = second compound 0.1 µM, first compound 0.316 µM
[18] = second compound 0.1 µM, first compound 1 µM
[19] = second compound 0.316 µM, first compound 0.0316 µM
[20] = second compound 0.316 µM, first compound 0.1 µM
[21] = second compound 0.316 µM, first compound 0.316 µM
[22] = second compound 0.316 µM, first compound 1 µM
[23] = second compound 1 µM, first compound 0.0316 µM
[24] = second compound 1 µM, first compound 0.1 µM
[25] = second compound 1 µM, first compound 0.316 µM
[26] = second compound 1 µM, first compound 1 µM
[27] = second compound 0.0316 µM, first compound 0.00316 µM
[28] = second compound 0.0316 µM, first compound 0.01 µM
[29] = second compound 0.1 µM, first compound 0.00316 µM
[30] = second compound 0.1 µM, first compound 0.01 µM
[31] = second compound 0.316 µM, first compound 0.00316 µM
[32] = second compound 0.316 µM, first compound 0.01 µM
[33] = second compound 1 µM, first compound 0.00316 µM
[34] = second compound 1 µM, first compound 0.01 µM

Compound: O=C(c1ccc(F)c(F)c1Nc1ccc(I)cc1F)N1CC(O)([C@@H]2CCCCN2)C1
viability, T/C (compound 0.00316 µM): 94.2% and 92.8% and 95.9%
viability, T/C (compound 0.01 µM): 90.2% and 82.4% and 91.8%
viability, T/C (compound 0.0316 µM): 87.9% and 89.5% and 101%
viability, T/C (compound 0.1 µM): 85.8% and 91.7% and 97.6%
viability, T/C (compound 0.316 µM): 87.8% and 89.1% and 96.5%
viability, T/C (compound 1 µM): 92.6% and 92.3% and 102%
IC50 (curve of compound): > 1 µM

Compound: NC1CCC(NC2CC2c2ccccc2)CC1 (stereo unspecified) + CNC(C)C(=O)NC1CN(S(=O)(=O)c2cccc(S(=O)(=O)N3CCC4CCC(C(=O)NC(c5ccccc5)c5ccccc5)N4C(=O)C(NC(=O)C(C)NC)C3)c2)CCC2CCC(C(=O)NC(c3ccccc3)c3ccccc3)N2C1=O
IC50 [1]: > 0.1 µM
IC50 [2]: > 0.1 µM
IC50 [3]: > 0.1 µM
IC50 [4]: > 0.1 µM
IC50 [5]: > 0.1 µM
IC50 [6]: > 0.1 µM
viability, T/C (second compound 0.00316 µM, first compound 0.000316 µM): 99.3%
viability, T/C (second compound 0.00316 µM, first compound 0.001 µM): 94%
viability, T/C (second compound 0.00316 µM, first compound 0.00316 µM): 90%
viability, T/C (second compound 0.00316 µM, first compound 0.01 µM): 87.5%
viability, T/C [7]: 99.4%
viability, T/C [8]: 87.8%
viability, T/C (second compound 0.01 µM, first compound 0.000316 µM): 95%
viability, T/C (second compound 0.01 µM, first compound 0.001 µM): 95.9%
viability, T/C (second compound 0.01 µM, first compound 0.00316 µM): 88.5%
viability, T/C (second compound 0.01 µM, first compound 0.01 µM): 85%
viability, T/C [9]: 93.5%
viability, T/C [10]: 94.4%
viability, T/C (second compound 0.0316 µM, first compound 0.000316 µM): 95%
viability, T/C (second compound 0.0316 µM, first compound 0.001 µM): 96.8%
viability, T/C [27]: 85.7%
viability, T/C [28]: 86.5%
viability, T/C [11]: 84.5%
viability, T/C [12]: 93.4%
viability, T/C (second compound 0.1 µM, first compound 0.000316 µM): 98.9%
viability, T/C (second compound 0.1 µM, first compound 0.001 µM): 102%
viability, T/C [29]: 96.5%
viability, T/C [30]: 93%
viability, T/C [15]: 92.8%
viability, T/C [16]: 87.8%
viability, T/C (second compound 0.316 µM, first compound 0.000316 µM): 102%
viability, T/C (second compound 0.316 µM, first compound 0.001 µM): 97.9%
viability, T/C [31]: 108%
viability, T/C [32]: 84.9%
viability, T/C [19]: 97.8%
viability, T/C [20]: 93.5%
viability, T/C (second compound 1 µM, first compound 0.000316 µM): 94.6%
viability, T/C (second compound 1 µM, first compound 0.001 µM): 76.7%
viability, T/C [33]: 99.3%
viability, T/C [34]: 85.9%
viability, T/C [23]: 90.7%
viability, T/C [24]: 92.3%

Further lines, with some results ahead:

IC50 [1]: > 10 µM
IC50 [2]: > 10 µM
IC50 [3]: > 10 µM
IC50 [4]: > 10 µM
IC50 [5]: > 10 µM
IC50 [6]: > 10 µM
Compound: C#Cc1c(F)ccc2cc(O)cc(-c3ncc4c(N5CC6CCC(C5)N6)nc(OCC56CCCN5CC(F)C6)nc4c3F)c12 (stereo unspecified) + CNC(C)C(=O)NC1CN(S(=O)(=O)c2cccc(S(=O)(=O)N3CCC4CCC(C(=O)NC(c5ccccc5)c5ccccc5)N4C(=O)C(NC(=O)C(C)NC)C3)c2)CCC2CCC(C(=O)NC(c3ccccc3)c3ccccc3)N2C1=O
viability, T/C [7]: 93.3%
viability, T/C [8]: 85.7%
viability, T/C (second compound 0.00316 µM, first compound 0.316 µM): 88%
viability, T/C (second compound 0.00316 µM, first compound 1 µM): 85.6%
viability, T/C (second compound 0.00316 µM, first compound 3.16 µM): 91%
viability, T/C (second compound 0.00316 µM, first compound 10 µM): 78%
viability, T/C [9]: 91.6%
viability, T/C [10]: 81.9%
viability, T/C (second compound 0.01 µM, first compound 0.316 µM): 89.2%
viability, T/C (second compound 0.01 µM, first compound 1 µM): 76.4%
viability, T/C (second compound 0.01 µM, first compound 3.16 µM): 86.5%
viability, T/C (second compound 0.01 µM, first compound 10 µM): 78.7%
viability, T/C [11]: 88.9%
viability, T/C [12]: 77.8%
viability, T/C [13]: 76.6%
viability, T/C [14]: 82%
viability, T/C (second compound 0.0316 µM, first compound 3.16 µM): 79.7%
viability, T/C (second compound 0.0316 µM, first compound 10 µM): 70.1%
viability, T/C [15]: 90.8%
viability, T/C [16]: 85.2%
viability, T/C [17]: 85.6%
viability, T/C [18]: 73.7%
viability, T/C (second compound 0.1 µM, first compound 3.16 µM): 78.8%
viability, T/C (second compound 0.1 µM, first compound 10 µM): 75.4%
viability, T/C [19]: 83%
viability, T/C [20]: 81.8%
viability, T/C [21]: 77.1%
viability, T/C [22]: 76.4%
viability, T/C (second compound 0.316 µM, first compound 3.16 µM): 79.6%
viability, T/C (second compound 0.316 µM, first compound 10 µM): 70.3%
viability, T/C [23]: 90.1%
viability, T/C [24]: 82.2%
viability, T/C [25]: 77.1%
viability, T/C [26]: 80.4%
viability, T/C (second compound 1 µM, first compound 3.16 µM): 77.8%
viability, T/C (second compound 1 µM, first compound 10 µM): 69.2%

IC50 (compound alone, run of 11/15/2022): > 1 µM
IC50 (curve of compound): > 1 µM
Compound: CNC(C)C(=O)NC1CN(S(=O)(=O)c2cccc(S(=O)(=O)N3CCC4CCC(C(=O)NC(c5ccccc5)c5ccccc5)N4C(=O)C(NC(=O)C(C)NC)C3)c2)CCC2CCC(C(=O)NC(c3ccccc3)c3ccccc3)N2C1=O (stereo unspecified)
viability, T/C (compound 0.00316 µM): 107% [middle of 9 runs]
viability, T/C (compound 0.01 µM): 102% [middle of 9 runs]
viability, T/C (compound 0.0316 µM): 98.1% [middle of 9 runs]
viability, T/C (compound 0.1 µM): 96.1% [middle of 9 runs]
viability, T/C (compound 0.316 µM): 93.5% [middle of 9 runs]
viability, T/C (compound 1 µM): 89.2% [middle of 9 runs]

IC50 [3]: > 1 µM
IC50 [4]: > 1 µM
IC50 [5]: > 1 µM
IC50 [6]: > 1 µM
IC50 (curve of first compound, second compound 3.16 µM): > 1 µM
IC50 (curve of first compound, second compound 10 µM): > 1 µM
Compound: O=C(c1ccc(F)c(F)c1Nc1ccc(I)cc1F)N1CC(O)([C@@H]2CCCCN2)C1 + Cc1c(S(C)(=O)=O)c(-c2cc(F)cc(N3CCN(c4ccc(NS(=O)(=O)c5ccc(NC(CCN6CCC(C(=O)OCCCP(=O)(O)O)CC6)CSc6ccccc6)c(S(=O)(=O)C(F)(F)F)c5)cc4)CC3)c2)c(-c2ccc(Cl)cc2)n1C(C)C
viability, T/C [27]: 82.4%
viability, T/C [28]: 88%
viability, T/C [11]: 85.4%
viability, T/C [12]: 86.8%
viability, T/C [13]: 93%
viability, T/C [14]: 89%
viability, T/C [29]: 96.5%
viability, T/C [30]: 109%
viability, T/C [15]: 96%
viability, T/C [16]: 84.6%
viability, T/C [17]: 91.8%
viability, T/C [18]: 91.1%
viability, T/C [31]: 99.8%
viability, T/C [32]: 93.5%
viability, T/C [19]: 86.2%
viability, T/C [20]: 89.6%
viability, T/C [21]: 83.8%
viability, T/C [22]: 84%
viability, T/C [33]: 89.9%
viability, T/C [34]: 87.2%
viability, T/C [23]: 88%
viability, T/C [24]: 87.7%
viability, T/C [25]: 94.8%
viability, T/C [26]: 85%
viability, T/C (second compound 3.16 µM, first compound 0.00316 µM): 104%
viability, T/C (second compound 3.16 µM, first compound 0.01 µM): 97.1%
viability, T/C (second compound 3.16 µM, first compound 0.0316 µM): 89.3%
viability, T/C (second compound 3.16 µM, first compound 0.1 µM): 88.6%
viability, T/C (second compound 3.16 µM, first compound 0.316 µM): 83.3%
viability, T/C (second compound 3.16 µM, first compound 1 µM): 78.1%
viability, T/C (second compound 10 µM, first compound 0.00316 µM): 173%
viability, T/C (second compound 10 µM, first compound 0.01 µM): 175%
viability, T/C (second compound 10 µM, first compound 0.0316 µM): 157%
viability, T/C (second compound 10 µM, first compound 0.1 µM): 132%
viability, T/C (second compound 10 µM, first compound 0.316 µM): 142%
viability, T/C (second compound 10 µM, first compound 1 µM): 131%
